Values after ≈ are worked out from the molar mass of the structure shown. Like-named read-outs stand apart in the source and are kept apart here.
Tests used:
Format in all cases: cell-based
[1] = system: Staphylococcus aureus ATCC43300, methicillin-resistant strain; assay: microbe, parasite or virus in culture; details: for MIC: ATCC 43300 / MRSA, read-out: MIC S. a 43300
Protocol: (§1) All target derivatives were assessed for their in vitro antibacterial activities using a broth microdilution assay to test their minimum inhibitory concentrations (MICs) against six Gram-positive strains (S. aureus ATCC31007, S. aureus ATCC25923, S. aureus ATCC43300, E. faecalis ATCC29212, B. subtilis ATCC9372, and S. epidermidis ATCC12228) and four Gram-negative strains (A. baumannii ATCC19606, K. pneumonia ATCC10031, E. coli ATCC25922, and P. aeruginosa ATCC27853). These compounds were also evaluated for their hemolytic activities and membrane selectivity by determining their HC50 (the concentration required to lyse 50% of red blood cells) and SI (HC50/MICs) values, respectively, and vancomycin was used as the positive drug.
(§2) MICs of the derivatives were determined by the micro broth dilution method according to the American Clinical and Laboratory Standards Institute (CLSI) standards. Briefly, 2-fold serial dilutions of target compounds were prepared in 96-well plates containing TSB broth. An equal volume of bacterial suspension (10^6 CFU/mL) was then pipetted into each well, and the mixture was incubated at 37 °C for 24 h. […] All biological experiments were repeated three times.

S. aureus ATCC4330 = assay: microbe, parasite or virus in culture; details: control compounds of the ROS assay
Protocol: Due to the presence of various biological enzymes in plasma, natural AMPs are susceptible to enzymatic degradation upon entering the bloods, leading to a loss of their antimicrobial activity. To evaluate the plasma stability of active compound 9h, we conducted a stability assay by determining their MBC (minimum bactericidal concentration) values in plasma and different blood components. […] The observed initial increase in the MBC value, followed by remaining unchanged, could potentially be attributed to the initial binding of compound 9h with plasma proteins, causing a reduction in its activity. Once this binding became saturated, the bactericidal activity of the compound remained stable, further indicating the good stability of compound 9h in plasma.
MBCs of the compounds were tested. Furthermore, MBCs of compounds in 50% plasma, 50% serum, and 50% blood suspension were tested. The MBC value is defined as the concentration at which the colony count is less than 5 after 18 h of incubation at 37 °C. All biological experiments were repeated three times.

S. aureus ATCC43300 [2] = assay: ROS assay (DCFH-DA); details: control compounds
Protocol: It is known that the disruption of bacterial cell membranes often causes the production of ROS in bacterial cells. The fluorescent probe DCFH-DA was used to monitor the level of intracellular ROS produced by S. aureus ATCC43300. DCFH-DA is initially non-fluorescent; however, it undergoes hydrolysis to DCFH upon entry into the cell. Subsequently, DCFH is converted to the fluorescent compound DCF when ROS are produced in the cells. […] The fluorescence intensity of 9h was about 8-fold higher than the PBS-treated group when the concentration of 9h increased 16 μg/mL.
Mid-log S. aureus ATCC43300 was collected and resuspended in PBS. Bacteria suspension (1.0 × 10^8 CFU/mL) was placed into a 96-well plate, and an equal volume of DCF-DA (10.0 μM) was mixed and incubated at 37 °C for 30 min. After incubation, the suspension was centrifuged (3500 rpm, 4 min), and the supernatant was removed and resuspended in PBS. […] The fluorescence intensity of each well was recorded by a microplate reader (Ex = 488 nm and Em = 530 nm). All biological experiments were repeated three times.

S. aureus ATCC43300 [3] = assay: DNA leakage study; details: control compound
Protocol: The destruction of bacterial cell membranes usually causes the leakage of macromolecules, including DNA and proteins. To investigate the effect of the compound 9h on the leakage of cytoplasmic contents, we performed DNA and protein leakage assays against S. aureus ATCC43300. The degree of damage to the bacterial cell membrane could be reflected by the concentrations of DNA and protein. The non-membrane-targeted antibiotic ciprofloxacin, membrane-targeted peptide melittin, and PBS were used as controls. […] A similar result were also observed in the leakage of protein with S. aureus (Figure 8C).
Mid-log S. aureus ATCC43300 was collected and resuspended in PBS (1.0 × 10^8 CFU/mL). […] The concentration of the protein was determined according to the method of the BCA assay kit (Thermo Fisher Scientific, Waltham, MA, USA), and the concentration of DNA in the supernatant was tested by a micro-spectrophotometer. All biological experiments were repeated three times.

S. aureus ATCC43300 [4] = assay: Resistance development assay (serial passage); details: at the 19th passage
Protocol: The rapid increase in bacterial resistance to antibiotics is a major challenge in clinical treatment, and in order to assess the drug resistance development for compound 9h, we performed a drug resistance assay against S. aureus ATCC43300. Norfloxacin was selected as the positive control. The S. aureus cells were incubated with sub-MIC (1/2 MIC) concentration of compound 9h and were serially passaged for a duration of 20 days.
Resistance was defined as a more than 4-fold increase in the tested compound in MIC when compared to the beginning value. Briefly, S. aureus ATCC43300 was cultured (37 °C, 200 rpm) in MHB broth for 5 h and diluted to 1 × 10^6 CFU/mL. Then, the bacteria were cultured with compound 9h at a sub-MIC concentration (1/2 MIC) for 18 h. The MICs were determined according to this method for consecutive 20 days. All biological experiments were repeated three times.

[5] = system: Acinetobacter baumannii ATCC19606; assay: MIC, broth microdilution; details: Acinetobacter baumannii, ATCC19606, read-out: MIC A. b. 19606
Protocol: as §1, §2

[6] = system: Bacillus subtilis ATCC9372, penicillin-susceptible strain; assay: MIC, broth microdilution; details: Bacillus subtilis, ATCC9372, read-out: MIC B. s. 9372
Protocol: as §1, §2

[7] = system: Enterococcus faecalis ATCC29212, vancomycin-susceptible strain; assay: MIC, broth microdilution; details: Enterococcus faecalis, ATCC29212, read-out: MIC E. f. 29212
Protocol: as §1, §2

[8] = system: Escherichia coli ATCC25922, penicillin-susceptible strain; assay: MIC, broth microdilution; details: Escherichia coli, ATCC25922, read-out: MIC E. c. 25922
Protocol: as §1, §2

[9] = system: Klebsiella pneumonia ATCC10031; assay: MIC, broth microdilution; details: Klebsiella pneumoniae, ATCC10031, read-out: MIC K. p. 10031
Protocol: as §1, §2

[10] = system: Pseudomonas aeruginosa ATCC27853; assay: MIC, broth microdilution; details: Pseudomonas aeruginosa, ATCC27853, read-out: MIC P. a. 27853
Protocol: as §1, §2

[11] = system: Staphylococcus aureus ATCC25923, erythromycin-susceptible strain; assay: MIC, broth microdilution; details: Staphylococcus aureus, ATCC25923, read-out: MIC S. a. 25923
Protocol: as §1, §2

[12] = system: Staphylococcus aureus ATCC31007, penicillin-resistant strain; assay: MIC, broth microdilution; details: Staphylococcus aureus, ATCC31007, read-out: MIC S. a. 31007
Protocol: as §1, §2

[13] = system: Staphylococcus epidermidis ATCC12228, erythromycin-susceptible strain; assay: MIC, broth microdilution; details: Staphylococcus epidermidis, ATCC12228, read-out: MIC S. e. 12228
Protocol: as §1, §2

[14] = system: Enterococcus faecalis ATCC51299, vancomycin-resistant strain; assay: MIC, broth microdilution; details: Enterococcus faecalis, ATCC51299, read-out: MIC E. f. 51299
Protocol: as §2

[15] = system: Enterococcus faecium ATCC51559, vancomycin-resistant strain; assay: MIC, broth microdilution; details: Enterococcus faecium, ATCC51559, read-out: MIC E. f. 51559
Protocol: as §2

[16] = Staphylococcus aureus ATCC43300 (MRSA)

CC[C@H](C)[C@H](NC(=O)CN)C(=O)NCC(=O)N[C@@H](C)C(=O)N[C@H](C(=O)N[C@@H](CC(C)C)C(=O)N[C@@H](CCCCN)C(=O)N[C@H](C(=O)N[C@@H](CC(C)C)C(=O)N[C@H](C(=O)N[C@H](C(=O)NCC(=O)N[C@@H](CC(C)C)C(=O)N1CCC[C@H]1C(=O)N[C@@H](C)C(=O)N[C@@H](CC(C)C)C(=O)N[C@H](C(=O)N[C@@H](CO)C(=O)N[C@@H](Cc1c[nH]c2ccccc12)C(=O)N[C@H](C(=O)N[C@@H](CCCCN)C(=O)N[C@@H](CCCNC(=N)N)C(=O)N[C@@H](CCCCN)C(=O)N[C@@H](CCCNC(=N)N)C(=O)N[C@@H](CCC(N)=O)C(=O)N[C@@H](CCC(N)=O)C(N)=O)[C@@H](C)CC)[C@@H](C)CC)[C@@H](C)O)[C@@H](C)O)C(C)C)C(C)C [melittin, reference compound]
MIC S. a 43300 [1, 16]: 8 mg/L (≈ 2.81 µM) | MBC (S. aureus ATCC4330; against S. aureus ATCC43300): 32 mg/L (≈ 11.2 µM) | effect on ROS fluorescence intensity (S. aureus ATCC43300 [2]): dose-dependently increase the fluorescence intensity

O=C(O)c1cn(C2CC2)c2cc(N3CCNCC3)c(F)cc2c1=O [ciprofloxacin, reference compound]
MIC [1, 16]: 0.25 mg/L (≈ 0.754 µM) | MBC (S. aureus ATCC4330; Staphylococcus aureus, ATCC 4330 / ATCC 43300, against S. aureus ATCC43300, read-out: MBC): 2 mg/L (≈ 6.04 µM) | effect on ROS fluorescence intensity (S. aureus ATCC43300 [2]): little change in fluorescence intensity | effect on DNA concentration (S. aureus ATCC43300 [3]): changed little

CCn1cc(C(=O)O)c(=O)c2cc(F)c(N3CCNCC3)cc21 [norfloxacin, reference compound]
fold increase in MIC (S. aureus ATCC43300 [4]): 512 fold

CN[C@H](CC(C)C)C(=O)N[C@H]1C(=O)N[C@@H](CC(N)=O)C(=O)N[C@H]2C(=O)N[C@H]3C(=O)N[C@H](C(=O)N[C@H](C(=O)O)c4cc(O)cc(O)c4-c4cc3ccc4O)[C@H](O)c3ccc(c(Cl)c3)Oc3cc2cc(c3O[C@@H]2O[C@H](CO)[C@@H](O)[C@H](O)[C@H]2O[C@H]2C[C@](C)(N)[C@H](O)[C@H](C)O2)Oc2ccc(cc2Cl)[C@H]1O [Van, vancomycin, reference compound]
MIC [5]: 16 mg/L (≈ 11 µM) | MIC [6]: 0.5 mg/L (≈ 0.345 µM) | MIC [7]: 2 mg/L (≈ 1.38 µM) | MIC [8]: 128 mg/L (≈ 88.3 µM) | MIC [9]: 128 mg/L (≈ 88.3 µM) | MIC [10]: > 128 mg/L | MIC [11]: 1 mg/L (≈ 0.69 µM) | MIC [12]: 1 mg/L (≈ 0.69 µM) | MIC [13]: 2 mg/L (≈ 1.38 µM) | MIC ([1]; Staphylococcus aureus): 2 mg/L (≈ 1.38 µM) | MIC [14]: 128 mg/L (≈ 88.3 µM) | MIC [15]: 128 mg/L (≈ 88.3 µM)
